Measurements as given in patent US20240173333A1, “Treating Alagille Syndrome (ALGS)” (priority 2022, published 2024).

Key:
[1] = test system: patients with Alagille syndrome (ALGS); assay: ASSERT-EXT open-label extension: ObsRO pruritus response; assay type: in vivo, human; details: placebo-odevixibat group; weeks 9-12 of ASSERT-EXT; 120 μg/kg/day
Method: ASSERT-EXT is a Phase 3, multi-center, open-label extension study designed to evaluate the long-term safety and efficacy of 120 μg/kg/day odevixibat in relieving pruritus in patients with ALGS. Patients who participated in the ASSERT trial (see Example 1) and met eligibility criteria for the ASSERT trial were eligible to participate. The duration of the treatment period is 72 weeks, followed by a 4-week Safety Follow-up Period. Clinic visits occur every 4 to 12 weeks. […]
Day 1 coincided with Week 24 in the ASSERT trial; however, if this was not possible due to logistic issues, patients enrolled in the ASSERT-EXT trial within 28 days of completion of the ASSERT trial. […] Two groups were analyzed up to an interim cut-off date of Sep. […]
Outcomes evaluated include pruritus, serum BAs, sleep, and treatment-emergent adverse events (TEAEs). The Primary Efficacy Endpoint is the change from baseline in scratching through Week 72 as measured by the Albireo ObsRO caregiver instrument.
Itching, Scratching, and Sleep Score. Itching, observed scratching, and sleep disturbance were recorded twice each day via eDiary. […] When logistically feasible, the same parent or caregiver recorded in the eDiary, and changes to the parent or caregiver who is performing the recording should be minimized. […] The caregiver recording in the eDiary was recorded. […]

[2] = test system: patients with Alagille syndrome (ALGS); assay: Pooled ASSERT and ASSERT-EXT: hepatic parameters (ALT, AST, GGT, total bilirubin); assay type: in vivo, human
Method: In the completed 24-week ASSERT study, patients with ALGS with history of significant pruritus and elevated serum BAs were randomized 2:1 to once-daily odevixibat 120 μg/kg or placebo, respectively. Patients who completed ASSERT could enter ASSERT-EXT, an ongoing, 72-week open-label extension study in which all patients receive odevixibat 120 μg/kg/day. This pooled analysis included all odevixibat-treated patients from ASSERT and/or ASSERT-EXT and spans from patients' first dose of odevixibat to a data cut-off of Sep. 9, 2022. Assessments over up to 36 weeks of treatment included change in observer-reported scratching scores and sleep parameters, as well as levels of serum BAs, autotaxin (a proposed meditator of pruritus), and 7 alpha-hydroxy-4-cholesten-3-one (C4; a marker of bile acid synthesis). Safety evaluations included assessment of alanine aminotransferase (ALT), total bilirubin, and treatment-emergent adverse events (TEAEs).
Patients who completed ASSERT could enter ASSERT-EXT, an ongoing 72-week extension study in which all patients received odevixibat 120 μg/kg/day. This pooled analysis spans from patients' first dose of odevixibat in ASSERT and/or ASSERT-EXT to a data cutoff at the end of the 72 week period; data from patients who received placebo in ASSERT are also presented for comparison. In both studies, laboratory assessments included measurement of serum alanine transaminase (ALT), Aspartate transaminase (AST), Gamma-glutamyltransferase (GGT), and total bilirubin levels. Caregivers rated patient pruritus using the PRUCISION™ instrument.

[3] = test system: patients with Alagille syndrome (ALGS); assay: ASSERT: global impression of change (CGIC, CaGIC, PGIC) and exit survey; assay type: in vivo, human; details: post hoc analysis; completion of study
[4] = test system: patients with ALGS; details: 6 patients with ALGS; 4 weeks; open-label; cited from earlier work

SMILES: CCCCC1(CCCC)CN(c2ccccc2)c2cc(SC)c(OCC(=O)N[C@@H](C(=O)N[C@@H](CC)C(=O)O)c3ccc(O)cc3)cc2S(=O)(=O)N1 [odevixibat, 1,1-dioxo-3,3-dibutyl-5-phenyl-7-methylthio-8-(N-{(R)-α-[N-((S)-1-carboxypropyl)carbamoyl]-4-hydroxybenzyl}carbamoylmethoxy)-2,3,4,5-tetrahydro-1,2,5-benzothiadiazepine]
- patients achieving a pruritus reduction ≥1-point from baseline [1]: 70%
- ALT, Mean (SD), Change to week 48 ([2]; n=9): 64 (102) U/L
- AST, Mean (SD), Change to week 48 ([2]; n=9): 37 (72) U/L
- GGT, Mean (SD), Change to week 48 ([2]; n=9): 2 (238) U/L
- Total bilirubin, Mean (SD), Change to week 48 ([2]; n=9): −1 (16) μmol/L
- ALT, Mean (SD), Change to week 36 ([2]; n=15): 79 (91) U/L
- AST, Mean (SD), Change to week 36 ([2]; n=16): 67 (66) U/L
- GGT, Mean (SD), Change to week 36 ([2]; n=16): 101 (149) U/L
- Total bilirubin, Mean (SD), Change to week 36 ([2]; n=16): 10 (37) μmol/L
- ALT, Mean (SD), Change to week 24 ([2]; n=37): 57 (81) U/L
- AST, Mean (SD), Change to week 24 ([2]; n=37): 43 (89) U/L
- GGT, Mean (SD), Change to week 24 ([2]; n=37): 107 (170) U/L
- Total bilirubin, Mean (SD), Change to week 24 ([2]; n=37): −1 (19) μmol/L
- AST, Mean (SD), Change to week 12 ([2]; n=42): 36 (67) U/L
- ALT, Mean (SD), Change to week 12 ([2]; n=43): 63 (82) U/L
- GGT, Mean (SD), Change to week 12 ([2]; n=44): 97 (178) U/L
- Total bilirubin, Mean (SD), Change to week 12 ([2]; n=44): −3 (32) μmol/L
- ALT, Mean (SD), Change to week 4 ([2]; n=46): 55 (71) U/L
- AST, Mean (SD), Change to week 4 ([2]; n=46): 40 (67) U/L
- GGT, Mean (SD), Change to week 4 ([2]; n=46): 79 (191) U/L
- Total bilirubin, Mean (SD), Change to week 4 ([2]; n=46): −4 (19) μmol/L
- ALT, Mean (SD), Baseline ([2]; n=52, before odevixibat): 173 (79) U/L
- AST, Mean (SD), Baseline ([2]; n=52, before odevixibat): 164 (76) U/L
- GGT, Mean (SD), Baseline ([2]; n=52, before odevixibat): 441 (329) U/L
- Total bilirubin, Mean (SD), Baseline ([2]; n=52, before odevixibat): 56 (49) μmol/L
- concurrent total bilirubin levels in the 4 patients with AST/ALT >3×BL ([2]; pooled): < 2 times the baseline level
- patients with on-treatment elevations in ALT and total bilirubin that met Hy's law criteria ([2]; pooled): No patients
- patients with potentially clinically significant elevations in AST and/or ALT to >3 times the baseline level ([2]; pooled, n=52): 4 patients
- caregivers reporting meaningful change in the patient since the start of treatment (exit survey) [3]: 78%
- effect on sBAs, itch, and sleep disturbance [4]: reduced sBAs, itch, and sleep disturbance in a majority of those patients
